According to a melting point compilation (Tetko et al.; mined from patent text by program, amines drawn as free bases though some values may be those of a salt):

| SMILES | melting point |
| --- | --- |
| COc1ccn(-c2ccc(C3CCN(S(=O)(=O)C(C)(C)C(=O)NO)CC3)cc2C)n1 | 172 to 173 °C |
| Cc1cccc(C)c1OCC(=O)NC(Cc1ccccc1)C(O)CC(N)Cc1ccccc1 (centres undefined) | 131 °C |
| O=[N+]([O-])c1ccccc1CSc1nnnn1-c1ccccc1 | 158 to 161 °C |
| CCC(=O)c1ccc(OC)c(C)c1C | 39 to 40 °C |
| CCc1cc2c(c(CC)n1)CCC(=O)N2Cc1ccc(-c2ccccc2-c2nnn(C(c3ccccc3)(c3ccccc3)c3ccccc3)n2)cc1 | 165 to 167 °C |
| CCCCCCCCCCCCCCCCCCN(CCCCCCCCCCCCCCCCCC)C(=O)N1CCN(C)CC1 | 46 to 47 °C |
| CCCCCCc1ccc(C(=O)CCCCC(=O)O)cc1 | 77 to 79 °C |
| FC(F)c1nc2ccccc2n1-c1nc(Nc2ccncn2)nc(N2CCOCC2)n1 | 233 to 235 °C |
| Cc1cc(C)cc(Nc2nccc(-n3ccnc3-c3ccccc3)n2)c1 | 183 °C |
| COc1ccc(NC(=O)CC23CC4CC(CC(C4)C2)C3)c(C)c1 | 156 to 157 °C |
| Nc1nc2c(ncn2CCOCP(=O)(O)O)c(=O)[nH]1 | > 260 °C |
| CC(=O)NC[C@H]1CN(c2ccc(C3CCN(CCF)CC3)c(F)c2)C(=O)O1 | 155 to 157 °C |
| O=C(O)c1cn(-c2ccc(SC(F)(F)F)cc2)cn1 | 247 to 248 °C |
| Clc1cc(-c2cc3ccccc3s2)nc2ccccc12 | 142 to 145 °C |
| O=C(O)C1Oc2cc3onc(-c4ccccc4)c3cc2O1 (centres undefined) | 202 to 204 °C |
| O=C1c2ccc(Nc3ccc(F)cc3F)cc2CCc2ccc(OCCCN3CCOCC3)cc21 | 114 °C |
| COc1snc(OCC#CI)c1C#N | 159 to 160 °C |
| CC(C(=O)O)c1ccc(-c2ccccc2[N+](=O)[O-])cc1 (centres undefined) | 116 to 119 °C |
| CCOC(Cc1ccc(OCc2nc(C(C)(C)C)oc2C)c2ccsc12)C(=O)O (centres undefined) | 179 to 180 °C |
| CC(=O)CCS(=O)(=O)c1ccc(C=C(C)c2ccc3c(c2)C(C)(C)CCC3(C)C)cc1 | 135 to 136 °C |
| Cc1nnc(SCC(=O)C23CC4CC(CC(C4)C2)C3)n1C | 113 to 114 °C |
| COC(=O)c1ccc(NC(=O)OCc2ccccc2)c(Cl)c1 | 108 °C |
| O=C1c2c(O)ccc(O)c2C(=O)c2c(NCCN=Cc3ccccc3)ccc(NCCN=Cc3ccccc3)c21 | 174 to 179 °C |
| O=c1c(Cl)coc2cc(OCCCCl)ccc12 | 101 to 103 °C |
| CC(C)(C)ON=C(C(=O)O)c1cccs1 | 106 to 107 °C |

| SMILES | melting point |
| --- | --- |
| O=S(c1cc(Br)c(-c2ccc(Cl)cc2)[nH]1)C(F)(F)F (centres undefined) | 177 to 179 °C |
| Cc1cc2cc(CN3CCCC3)cnc2cc1NC(=O)c1ccc(-c2ccc(Cl)cc2)cc1F | 195 to 198 °C |
| COc1ccc2c(c1)c(COC(C)(C)C(=O)O)nn2Cc1ccccc1 | 128 to 130 °C |
| CCCc1ccc(Oc2ccc3c(c2)C=C(C(=O)Nc2ccc(CN(C)C4CCOCC4)cc2)CCS3(=O)=O)cc1 | 147 to 149 °C |
| COP(=O)(Cc1ccc(NC(=O)/C=C/c2cnn(C)c2-c2ccc(F)cc2)cc1)OC | 209 to 210 °C |
| CC(=O)OCC(C(OC(C)=O)c1cccc(F)c1)[N+](=O)[O-] (centres undefined) | 94 °C |
| Cn1cnc2c(ccc3[nH]cc(CCN)c32)c1=O | 279 to 285 °C |
| CCOc1ccnc2[nH]cc(C(C)=O)c12 | > 210 °C |
| COc1cc(/C=C/CO)ccc1OCc1nc(-c2ccco2)oc1C | 128 to 129 °C |
| COP(=O)(Cc1c2ccccc2cc2ccccc12)OC | 152 to 153 °C |
| Cc1cc(-n2ccnc2)c2cccc(OCc3c(Cl)ccc(S(=O)(=O)N4CCCC[C@H]4C(=O)O)c3Cl)c2n1 | 208 °C |
| COC(=O)c1cc(C#N)ccc1NC(=O)c1cccc(S(=O)(=O)N2CCOCC2)c1 | 184 to 185 °C |
| CCCn1c(=O)c2c(nc(C=Cc3cc(OC)c(OC)cc3S(N)(=O)=O)n2C)n(CCC)c1=O | 266 to 268 °C |
| CCOCCOc1ccc2c(c1)C(CNS(=O)(=O)CC)CC(C)(C)O2 (centres undefined) | 70 to 72 °C |
| NP(N)(=O)NC(=O)c1ccsc1 | 269 to 278 °C |
| CCC(C)CCCC(C)C1CC(=O)C2(C(=O)O)C3=C(CCC12C)C1(C)CCC(O)CC1CC3 (centres undefined) | 195 to 196 °C |
| O=C1[C@H]2Cc3c([nH]c4ccccc34)[C@@H](c3ccc4c(c3)OCO4)N2C(=O)C2CNCCN12 (some centres undefined) | 226 to 237 °C |
| Cc1cc(C)c(-c2cccc3c(O)cc(C)nc23)c(C)c1 | > 250 °C |
| Cc1ccc2c(c1)N(CC(=O)c1ccco1)C(=O)C(NC(=O)Nc1cccc(C(=O)O)c1)CN2C(=O)C(C)(C)C (centres undefined) | 202 to 204 °C |
| O=C1c2ccccc2C(=O)N1OCc1nc(=O)c(O)c[nH]1 | 174 to 175 °C |
| COC(=O)c1cccc(-c2ccc(O)cc2)c1 | 135 to 136 °C |
| OCCN1CCN(Cc2ccc(O)c3ncccc23)CC1 | 123 to 124 °C |
| Cc1c(C(=O)O)oc2c(C(C)(C)C)ccc(O)c12 | 219 to 222 °C |
| CCCn1c(=O)c2c(nc(/C=C/c3ccc4c(c3)OCO4)n2C)n(CCC)c1=O | 152 to 155 °C |
| COC(=O)CC1CCc2cc(OC)ncc2C1O (centres undefined) | 92 to 96 °C |

| SMILES | melting point |
| --- | --- |
| O=c1c2ccccc2[nH]n1C(c1ccccc1)c1ccccc1 | 179 to 181 °C |
| COC(=O)CCCc1cc2nc(Cl)ccc2n1S(=O)(=O)c1ccc(OC(F)(F)F)cc1 | 109 °C |
| N#Cc1coc2c(Cl)cc(Cl)cc2c1=O | 150 °C |
| O=C(OCc1cc(F)nc(F)c1F)c1ccccc1 | 73 to 76 °C |
| CCOC(=O)CCCOc1ccc2c(c1)C(N(CC)S(C)(=O)=O)CC(C)(C)O2 (centres undefined) | 40 to 42 °C |
| COc1cc(CCC(=O)O)ccc1OCCCc1cn(-c2ccc(C(F)(F)F)cn2)nc1C | 136 to 137 °C |
| CCOC(=O)C(C)(C)Sc1ccc2c(-c3ccccc3F)noc2c1Cl | 83.4 °C |
| CCCCc1nc2c(N)nc3ccc(OCC(=O)N4CCCCC4)cc3c2n1C | 222 to 223 °C |
| COc1ccc(C=Cc2cc(OC)c(OC)c(OC)c2)c(O)c1O | 114 to 115 °C |
| COc1ccc(-c2cccc3c2C2(COc4cc5c(cc42)OCO5)C(=O)N3Cc2ccc(C(F)(F)F)o2)cn1 (centres undefined) | 174 to 176 °C |
| NC(=O)c1c(F)ccc(OCc2nc3ncccc3o2)c1F | 180 to 181 °C |
| CC(C)(C)c1ccc(-c2nc(Cl)c3ccccc3n2)cc1 | 75 to 76.5 °C |
| COc1ccc(C=Nc2c3c(nc4ccccc24)CCCC3)cc1 | 160 to 162 °C |
| COc1ccc(C(C)(O)c2cccc(OCc3nc(-c4ccccc4)oc3C)c2)c(OCC(=O)O)c1 (centres undefined) | 148 to 149 °C |
| COc1cnc(CSc2nc3cc(OC(F)(F)C(F)F)ccc3[nH]2)cc1OC | 125 to 127 °C |
| O=C(C=Cc1ccccc1O)OCCc1ccccc1 | 40 °C |
| COCc1c(C(=O)c2ccccc2)ncc2[nH]c3ccc(OCc4ccccc4)cc3c12 | 165 °C |
| CC(C)c1cc(C(C)C)c(CC(=O)NS(=O)(=O)Oc2c(C(C)C)cc(C#N)cc2C(C)C)c(C(C)C)c1 | 79 to 84 °C |
| COc1ccc(NC(=O)c2nc3c(s2)C(=O)C=C(NCCCN(C)CCCNC2=CC(=O)c4sc(C)nc4C2=O)C3=O)cc1 | 141 to 142 °C |
| O=C(Oc1ccccc1)N1CCC2(CC1)SC(c1ccccc1F)c1ccccc12 (centres undefined) | 122 to 123 °C |
| NC(CCCc1ccccc1)C(=O)O (centres undefined) | 213 to 215 °C |
| CNC(=NC#N)NCc1c(C)cc(C)c(CNC(=NC#N)NC)c1C | 270 to 272 °C |
| CCOC(=O)c1nc2c(=O)[nH]c3cc(C(F)(F)F)ccc3n2c1CNCc1ccccc1 | > 250 °C |
| CCCc1nc2c(N)nc3cc(OCCOCCCl)ccc3c2s1 | 101 to 103 °C |
| CCOC(C)=C1SC(=S)N(c2ccc(Cl)cc2)C1=O | 168 to 171 °C |

| SMILES | melting point |
| --- | --- |
| CCCN=C(N)Nc1ccnc(CCCCc2ncc(CC)c(O)n2)n1 | 140 to 142 °C |
| Clc1ccc(C2COCCS2)cc1Cl (centres undefined) | 65 to 68 °C |
| CCOC(=O)C(=O)Nc1cccc(N(C)C)c1C#N | 124 to 126 °C |
| CC(=O)NC(CCC(=O)c1c(F)cccc1F)c1ccc(Br)cc1 (centres undefined) | 162 to 163 °C |
| CCc1cc(COc2nn(Cc3ccccc3)cc2C(=O)O)ccc1OCc1nc(-c2ccco2)oc1C | 173 to 174 °C |
| COc1cc2c(c(OC)c1OC)OCC2=O | 81 to 83 °C |
| C=C(C)c1cc(-c2ccc(OCCNC(N)=O)cc2)n(-c2ccc(OC)nc2)n1 | 94 to 98 °C |
| COC(=O)c1nc2cc(Cl)cc(C)c2c(O)c1C(=O)OC | 117 to 119 °C |
| O=S(Cc1[nH]c2ccccc2c1Sc1ccccc1)c1ccccc1 (centres undefined) | 71 to 74 °C |
| O=C1C=C(c2ccc[nH]2)C(=O)c2ccccc21 | 155 to 158 °C |
| O=CCOc1ccccc1OCC(F)(F)F | 55.3 to 57.5 °C |
| Cn1c(C(F)(F)F)cc(=O)n(-c2cc(OCC(C)(C)C)c(Cl)cc2F)c1=O | 122 to 124 °C |
| COc1cc(C(=O)c2nc(C(=O)O)c3ccccn23)ccc1N | 226 °C |
| CCN(CC)[C@@H]1C(=O)N(C)[C@H]1c1ccccc1 (relative stereo) | 70 to 71 °C |
| COc1ccc(-c2nn(C(C)C)c3c(C(F)(F)F)cccc23)c(OC)c1 | 128 to 129 °C |
| COc1cc2c(cc1OCc1ccccc1)CCN(Cc1ccccc1)C2 | 97 to 98 °C |
| Nc1cccc(SC2SCC(O)C(O)C2O)c1 (centres undefined) | 128 to 132 °C |
| CC(C)(C)OC(=O)Nc1cc(CC#N)c(C#Cc2ccccc2)cc1[N+](=O)[O-] | 166 °C |
| CN1CCOC(C2=C(C#N)C(c3cccc4nonc34)c3c[nH]nc3N2)C1 (centres undefined) | 143 °C |
| Cc1ccc(OCc2ccccc2[N+](=O)[O-])c(C=O)c1 | 124 °C |
| CC(=O)Nc1ccc(OC(=O)C2CCc3c(c4ccccc4n3C(=O)c3ccccc3)C2)cc1 (centres undefined) | 166 to 168 °C |
| OC1CSC(Oc2cccc3ocnc23)C(O)C1O (centres undefined) | 172 °C |
| CC(C)(C)C(=O)Oc1ccc(-c2nnn(Cc3ccccc3)n2)cc1 | 131 to 134 °C |
| CSc1nc2c(NCc3ccccc3)nc(NCCCO)nc2n1C(C)C | 64 to 67 °C |
